The target of one assay is Kallikrein-7 (Homo sapiens, UniProt P49862). As to the kind of experiment: Inhibition of recombinant human KLK7 using MOCAc-Arg-Pro-Lys-Pro-Val-Glu-Nva-Trp-Arg-Lys(Dnp)-NH2 as substrate preincubated for 10 mins followed by substrate addition measured after 30 mins by fluorescence assay.
The target in another assay is T1, Kallikrein-5 (Homo sapiens, UniProt Q9Y337).
T1 sequence (Q9Y337 whole entry): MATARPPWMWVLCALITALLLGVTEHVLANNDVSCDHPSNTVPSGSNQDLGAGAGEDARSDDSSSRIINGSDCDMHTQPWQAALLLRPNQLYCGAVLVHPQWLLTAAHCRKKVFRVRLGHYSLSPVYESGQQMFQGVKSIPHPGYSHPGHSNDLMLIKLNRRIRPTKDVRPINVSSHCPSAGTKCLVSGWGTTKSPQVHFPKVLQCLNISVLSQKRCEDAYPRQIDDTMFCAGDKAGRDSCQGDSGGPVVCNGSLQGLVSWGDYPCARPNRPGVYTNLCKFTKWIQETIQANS
Nature of the assay: Inhibition of recombinant human KLK5 using Boc-Val-Pro-Arg-MCA as substrate preincubated for 10 mins followed by substrate addition measured after 30 mins by fluorescence assay.

Assay [1] in a line: Inhibition of human chymotrypsin using Suc-Ala-Ala-Pro-Phe-MCA as substrate preincubated for 10 mins followed by substrate addition measured after 30 mins by fluorescence assay.
The next assay concerns the target Trypsin (Homo sapiens, UniProt P07477+P07478+P35030). Nature of the assay: Inhibition of human trypsin using Boc-Gln-Ala-Arg-MCA as substrate preincubated for 10 mins followed by substrate addition measured after 30 mins by fluorescence assay. The format is protein assay.

Kallikrein-7, sequence (P49862 whole entry): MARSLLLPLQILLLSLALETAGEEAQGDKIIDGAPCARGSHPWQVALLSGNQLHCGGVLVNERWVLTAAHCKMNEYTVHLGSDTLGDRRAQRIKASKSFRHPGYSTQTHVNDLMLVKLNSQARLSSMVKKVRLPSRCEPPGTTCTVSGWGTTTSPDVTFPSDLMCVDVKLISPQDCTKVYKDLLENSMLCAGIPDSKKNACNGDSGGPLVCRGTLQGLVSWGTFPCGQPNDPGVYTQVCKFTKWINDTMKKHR

A word on the IC50: it is the concentration that inhibits the measured activity by half. Turning to `COc1ccc(Cl)cc1C[C@@H]1CN/C(=N\N(C)C)CN([C@@H](C)C(=O)Nc2cccc(-c3cnn(C)c3)c2)C1=O`, the IC50 was 0.058 µM on Kallikrein-7, above 30 µM on Kallikrein-5, 3.1 µM in assay [1] and above 30 µM at Trypsin.
With `COc1ccc(Cl)cc1C[C@@H]1CN/C(=N\N(C)C)CN(CC(=O)Nc2cccc(-c3cnn(C)c3)c2)C1=O`, the IC50 was 0.52 µM on Kallikrein-7, above 30 µM on Kallikrein-5, above 30 µM in assay [1] and above 30 µM on Trypsin.
Regarding `COc1ccc(Cl)cc1C[C@@H]1CN/C(=N\N(C)C)CN(CC(=O)Nc2cccc(C(F)(F)F)c2)C1=O`, the half-maximal inhibitory concentration (IC50) at Kallikrein-7 came to 4.3 µM.
On to `COc1ccc(Cl)cc1C[C@@H]1CN/C(=N\N(C)C)CN(CC(=O)Nc2cccc(S(=O)(=O)N(C)C)c2)C1=O`, for which, on Kallikrein-7, the IC50 worked out at 0.99 µM.
`COc1ccc(Cl)cc1C[C@@H]1CN/C(=N\N(C)C)CN(CC(=O)Nc2cccc(C(=O)N(C)C)c2)C1=O`: the IC50 at Kallikrein-7 was determined as 2.5 µM.
Still for that read-out and setting: the same measure for `COc1cccc(NC(=O)CN2C/C(=N/N(C)C)NC[C@@H](Cc3cc(Cl)ccc3OC)C2=O)c1`: 2.7 µM; for `COc1ccc(Cl)cc1C[C@@H]1CN/C(=N\N(C)C)CN(CC(=O)Nc2cccc(S(=O)(=O)C(F)(F)F)c2)C1=O`: 3.9 µM; for `CNC(=O)c1cccc(NC(=O)CN2C/C(=N/N(C)C)NC[C@@H](Cc3cc(Cl)ccc3OC)C2=O)c1`: 0.94 µM.
As for `COc1ccc(Cl)cc1C[C@@H]1CN/C(=N\N(C)C)CN([C@H](C)C(=O)Nc2cccc(-c3cnn(C)c3)c2)C1=O`, the IC50 at Kallikrein-7 was 0.92 µM.
With `COc1ccc(Cl)cc1C[C@@H]1CN/C(=N\N(C)C)CN(CC(=O)Nc2cccc(C#N)c2)C1=O`, the IC50 at Kallikrein-7 amounted to 5.3 µM.
Same read-out and setting: the same measure for `CCC[C@H](C(=O)Nc1cccc(-c2cnn(C)c2)c1)N1C/C(=N/N(C)C)NC[C@@H](Cc2cc(Cl)ccc2OC)C1=O`: 7 µM.
For `COc1ccc(Cl)cc1C[C@@H]1CN/C(=N\N(C)C)CN(CC(=O)Nc2cccc(-c3cccs3)c2)C1=O`, at Kallikrein-7, the IC50 is 0.87 µM.
In the case of `COc1ccc(Cl)cc1C[C@@H]1CN/C(=N\N(C)C)CN(CC(=O)Nc2cccc(-c3ccco3)c2)C1=O`, the IC50 on Kallikrein-7 came to 0.59 µM.
Regarding `COc1ccc(Cl)cc1C[C@@H]1CN/C(=N\N(C)C)CN(CC(=O)Nc2cccc(-c3ccsc3)c2)C1=O`, the 50% inhibitory concentration (IC50) on Kallikrein-7 came to 1.5 µM.
Turning to `CC[C@H](C(=O)Nc1cccc(-c2cnn(C)c2)c1)N1C/C(=N/N(C)C)NC[C@@H](Cc2cc(Cl)ccc2OC)C1=O`, the IC50 on Kallikrein-7 was 2.8 µM.
`CCCC[C@H](C(=O)Nc1cccc(-c2cnn(C)c2)c1)N1C/C(=N/N(C)C)NC[C@@H](Cc2cc(Cl)ccc2OC)C1=O`: the 50% inhibitory concentration (IC50) at Kallikrein-7 was 4.1 µM.
On the same count and under the same terms, next, `CC[C@@H](C(=O)Nc1cccc(-c2cnn(C)c2)c1)N1C/C(=N/N(C)C)NC[C@@H](Cc2cc(Cl)ccc2OC)C1=O`: 0.45 µM; `COc1ccc(Cl)cc1C[C@@H]1CN/C(=N\N(C)C)CN(CC(=O)Nc2cccc(-c3ccoc3)c2)C1=O`: 0.67 µM.
On to `CCCC[C@@H](C(=O)Nc1cccc(-c2cnn(C)c2)c1)N1C/C(=N/N(C)C)NC[C@@H](Cc2cc(Cl)ccc2OC)C1=O`, for which the IC50 on Kallikrein-7 was determined as 0.11 µM.
Take `CCC[C@@H](C(=O)Nc1cccc(-c2cnn(C)c2)c1)N1C/C(=N/N(C)C)NC[C@@H](Cc2cc(Cl)ccc2OC)C1=O`: the half-maximal inhibitory concentration (IC50) is 0.048 µM at Kallikrein-7, above 30 µM on Kallikrein-5, 1.3 µM in assay [1] and above 30 µM against Trypsin.
